Assay results reported in patent publication US20180292376A1, “DIFFUSION CELL TESTING METHODS CONTAINING BIPHASIC RECEPTOR FLUIDS” (BUFFERAD Illinois Inc. d/b/a Zyleris PharmaTech, Inc., priority 2017, published 2018).

Assays:
[1] = In vitro release testing (IVRT), static vertical diffusion cell, synthetic membrane, UV-VIS analysis; type: physicochemical; conditions: petrolatum ointment with 0.5% loteprednol etabonate and 0.3% tobramycin sulfate; 1-octanol:1-hexanol:water 25:25:50 v:v:v
Description: In Vitro Release Testing Method.
Release of pharmaceutically active compounds from semi-solid dosage forms was evaluated in an in vitro model of static vertical diffusion cell using a synthetic membrane model. […] The samples were analyzed using a UV-VIS spectrometer. […]
Test time points: 0, 2, 4, 6, 8, and 10 hours. Each test was conducted in four replicates (N=4). Square root of test time points: 0, 1.41, 2.00, 2.45, 2.83, and 3.16.
Membrane: Polypropylene (pore size: 0.45 micron).
Static vertical diffusion cell parameters: Area of the membrane diffusion area: 0.95 square centimeters.
Dosing level: infinite dose at about 3.0 milliliter of the semi-solid dosage form.
Static vertical diffusion cell consists of a donor and receptor compartment separated by a synthetic membrane. The dosing compartment was for the dosed semi-solid dosage form. […] Before dosing, the diffusion cell was pre-incubated at 32° C. for about 20 to 45 minutes. The t=0 samples were taken after the incubation period prior to dosing.
During the experiment, the receptor fluid was in intimate contact with the membrane through a mixing mechanism, such as, e.g., magnetic stirring bar, or orbit shaker, and maintained at 32° C. using a heating mechanism, such as, e.g., dry heat block, or circulating water bath. At each time point, entire content of the receptor fluid was collected and replaced with a fresh batch pre-incubated at 32° C.
An ointment dosage form was prepared as an example of the semi-solid dosage form. Petrolatum was heated to about 50 to 70° C. while mixing. Xylene Cyanol was added to the heated petrolatum while heating and mixing. The mixture was mixed until uniform. Then, the mixture was slowly cooled to room temperature while mixing to yield the ointment formulation.

[2] = general statement, no test described; cited from earlier work

Molecule | phase of the biphasic receptor fluid in which the released compound is solubilized [1] | solubility in water [2]
CCOC(=O)O[C@]1(C(=O)OCCl)CC[C@H]2[C@@H]3CCC4=CC(=O)C=C[C@]4(C)[C@H]3[C@@H](O)C[C@@]21C [loteprednol etabonate, Loteprednol etabonate] | mostly solubilized in the organic 1-octanol/1-hexanol phase | 
Tobramycin sulfate |  | freely soluble
